# Test results: publication PMC9234961 (Journal of Medicinal Chemistry, 2022)
# Several values for one entry are separate records, joined by “and”; a condition that tells them apart may be missing. Equal entries are not always repeated. Where two headings read alike, the source gives them in different places. Marks after values point to notes of the source that are not given here.
# Legend:
# [1] = target: endogenous BCL6 in OCI-Ly1 cells (Homo sapiens, UniProt P41182); assay: cell-based; settings: for degradation of BCL6 (in words): OCI-Ly1 MSD assay; for MSD degrader assay [OCI-Ly1] Dmax: mean maximal degradation of BCL6
# [2] = In vivo pharmacokinetic study in Balb/C mice; design: species or system mouse; settings: female Balb/C mice
# [3] = Microsomal clearance assay (HLM); assay type: in vitro ADME; settings: human liver microsomes, 1 μM compound
# Protocol: (§1) 6. Supplementary experimental: in vitro DMPK assays
# (§2) 6.1 Microsomal clearance assay
# (§3) Microsomal clearance was determined in female CD1 mice, female Sprague–Dawley rats, and mixed gender human liver microsomes obtained from BioIVT (Peterborough, U.K.) following incubation of 1 μM compound at 37 °C in 0.5 mg/mL microsomal protein, 3 mmol/L MgCl2, 1 mmol/L NADPH, 2.5 mmol/L and 10 mmol/L phosphate buffer (pH 7.4) (all purchased from Sigma-Aldrich, Gillingham, U.K). Reactions were started by addition of the cofactors following 10 min preincubation of microsomes with test compound and were terminated at −1, 0, 5, 10, 15, and 30 min with three volumes of ice-cold methanol containing internal standard. Samples were centrifuged at 2800g for 30 min at 4 °C and the supernatants analyzed.
# (§4) Control incubations were prepared as above with omission of cofactors. Compound measurements were […]
# (§5) separation with a 3 min gradient of 0.1% formic acid in methanol on a Kinetex C18, 50 × 2.1 mm 2.6 μm UPLC column (Phenomenex, Macclesfield, UK). […]
# [4] = in vitro; assay type: in vitro ADME; settings: BALB/c; mouse plasma, rapid equilibrium dialysis; read-out: mouse (BALB\c) PPB (converted)
# [5] = logD7.4 assay (Chrom log D method); assay type: physicochemical; settings: pH 7.4, read-out: Measured logD7.4
# Protocol: Calibration, validation and in-house compounds were prepared at 1mM in 10% DMSO / 90% Trizma solution (100mM Trizma in 75/25 methanol/water). 3 µL standard injections (with needle wash) of all calibration, validation and in-house samples were made onto a Phenomenex Luna C8 column (3µm, 100 x 4.6 mm, 100A, Phenomenex, Torrence, USA). Chromatographic separation at 30°C was carried out using […]
# 2 mL/min. The gradient was held at 0:100 water:organic for 0.8 minutes, then returned to the starting conditions of 95:5 water:organic for 0.2 minutes. The column was re-equilibrated for 5 minutes at the […]
# [6] = Microsomal clearance assay (MLM); assay type: in vitro ADME; settings: mouse liver microsomes, 1 μM compound; for microsomal CLint at 0.5 h, 1 µM: female, CD1, pH 7.4
# Protocol: as §1, §2, §3, §4, §5
# [7] = in vitro; assay type: in vitro ADME; settings: pH 7.4, 10 µM, 16 h at 30 °C
# [8] = NMR solubility assay; assay type: physicochemical; settings: kinetic solubility by NMR in HEPES buffer at pH 8, 4% DMSO; read-out: Aq. Sol.
# Protocol: 4. Supplementary experimental: physicochemical assays
# 0.5 mM TCEP, 10% D2O) was pipetted into the same well and mixed by up-down pipetting 3 times to create […]
# It was then separated by centrifugation (1000 rpm
# The plate was then sealed and incubated at room temperature for 20 hours, […]
# 165 µL of the supernatant was transferred to a 3 mm NMR tube (Bruker, Part No. Z112272) using liquid handler SamplePro Tube SJ S (Bruker). The concentration of the solubilized compound in solubility sample is measured by quantitative 1H-NMR using a single external standard (200 µM caffeine (Sigma, C1778) in PBS (pH 7.4) with 1% DMSO-d6).
# The detail of the NMR method is as following: NMR data was collected on a Bruker Avance Neo 600 spectrometer equipped with a 5 mm TCI-CryoProbe. The 1H spectrum was referenced to the internal deuterated solvent. The operating frequency for 1H was 600 MHz. All NMR data were acquired at the […]
# 1H-NMR spectrum was acquired using a Bruker standard 1D lc1pngppsf2 pulse sequence with 32 scans.
# The sweep width was 6.2 ppm with O1P set to 8.8 ppm, and the FID contained 16k time-domain data points. Relaxation delay was set to 20 sec. Water signal was suppressed. […]
# [9] = in vitro; assay type: in vitro ADME; settings: fraction unbound in OCI-Ly1 DC50 assay medium
# [10] = Microsomal clearance assay (RLM); assay type: in vitro ADME; settings: rat liver microsomes, 1 μM compound
# Protocol: as §1, §2, §3, §4, §5
# [11] = HPLC solubility assay; assay type: physicochemical; settings: solubility by HPLC in PBS buffer and 1% DMSO at pH 7.4
# Protocol: 11 4.2 HPLC solubility assay
# 10 µL of 10 mM DMSO stock solution was pipetted into a micro centrifuge tube (1.5 mL, Sarstedt part-no.
# seconds on vortex mixer (Grant-bio vortex mixer) to create 100 µM solution with 1% DMSO. Following shaking of the suspension on a Bohdan Shaker at 500 rpm for 2 hours at room temperature (20 °C), it was
# The concentration of the solubilized compound in solubility sample is measured by HPLC with UV detection using an external standard which was prepared by pipetting 10 µL of the same batch of
# The detail of the HPLC method is as following: chromatographic separation at 30°C is carried out over a 5 minute gradient elution method from 90:10 to 10:90 water:methanol (both modified with 0.1% formic acid) at a flow rate of 1.5 mL/min. Calibration curve is prepared by injecting 0.5, 2.5, and 5 µL of compound
# [12] = target: T1, human BCL6 BTB domain (Homo sapiens, UniProt P41182); assay: biochemical; settings: BCL6 TR-FRET IC50 individual replicates, single replicate values
# Protocol: (§6) Assays were performed in a 384-well black Proxiplate (Perkin Elmer) containing 1 nM Trx-6xHis-BCL6 (in
# (§7) anti-6xHis-Terbium cryptate (CisBio Bioassays, France), in assay buffer (25 mM Hepes pH8, 100 mM NaCl,
# (§8) 0.05% Tween20, 0.5 mM TCEP, 0.05% bovine serum albumin). Test compounds in DMSO or DMSO alone
# (§9) were added to the wells using an ECHO550 acoustic dispenser (Labcyte Inc) to give the appropriate test
# (§10) concentration in 0.7% v/v DMSO final. After 2 hours incubation at room temperature the plate was read
# (§11) The % inhibition at each concentration was calculated by normalising FRET ratio to the
# (§12) appropriate high (DMSO with all reagents) and low (DMSO without BCL6) controls. IC50 values were
# (§13) determined using GraphPad Prism 6.0 or Dotmatics (Bishops Stortford, UK) software by fitting the
# (§14) normalised data to a sigmoidal four-parameter logistic fit equation.
# [13] = target: T1, human BCL6 BTB domain; settings: for BCL6 TR-FRET pIC50 mean: mean of replicates
# Protocol: as §6, §7, §8, §9, §10, §11, §12, §13, §14
# [14] = tested on: HT; assay: Cell proliferation assay (14 days), HT; settings: Homo sapiens, HT, 336 h, read-out: HT GI50
# Protocol: (§15) Cells were seeded in 96-well culture plates at a density of 2500 cells/well in RPMI-1640 medium (Sigma-
# (§16) Aldrich) supplemented with 10% FBS (Gibco). Compounds were initially dispensed into 96-well U-bottom
# (§17) plates using an Echo 550 acoustic dispenser (Labcyte Inc.), then diluted in RPMI-1640 medium and
# (§18) transferred onto the cells. Cells were treated with 8 compound concentrations in duplicate, ranging from
# (§19) with compound for 14 days, with medium changes at days 3, 7 and 10 carried out as follows: fresh 96-well
# (§20) cell culture plates were prepared containing 100 µl medium plus compound at the assay concentrations
# (§21) (white plates were used on day 10 to optimise luminescence measurement). Assay plates containing cells
# (§22) were vortexed to mix and cell density in one control well was counted using a Coulter Z2 cell counter
# (§23) (Beckman Coulter). The volume of medium containing 2500 cells in the control well was calculated and this volume of cells was transferred from every well of the assay plates to the corresponding well of the fresh plates containing compound. After 14 days, CellTiter Glo reagent (Promega) was added to the medium in each well of the assay plate at a ratio of 1:2, mixed on a plate shaker, then incubated at room temperature for 10 minutes. Luminescence was measured using an Envision plate reader (Perkin Elmer) and the relative luminescence at each compound concentration, compared to DMSO alone, was calculated. GI50 were determined using a 4-parameter curve fit in Dotmatics (Bishops Stortford, UK).
# [15] = tested on: Karpas 422; assay: Cell proliferation assay (14 days), Karpas 422; settings: Homo sapiens, KARPAS-422, 336 h, read-out: Karpas 422 GI50
# Protocol: as §15, §16, §17, §18, §19, §20, §21, §22, §23
# [16] = tested on: OCI-Ly1; assay: Cell proliferation assay (14 days), OCI-Ly1; settings: Homo sapiens, OCI-Ly1, 336 h, read-out: OCI-Ly1 GI50
# Protocol: as §15, §16, §17, §18, §19, §20, §21, §22, §23
# [17] = tested on: OCI-Ly3; assay: Cell proliferation assay (14 days), OCI-Ly3; settings: Homo sapiens, OCI-Ly3, 336 h, read-out: OCI-Ly3 GI50
# Protocol: as §15, §16, §17, §18, §19, §20, §21, §22, §23
# [18] = tested on: SU-DHL-4; assay: Cell proliferation assay (14 days), SU-DHL-4; settings: Homo sapiens, SU-DHL-4, 336 h, read-out: SU-DHL-4 GI50
# Protocol: as §15, §16, §17, §18, §19, §20, §21, §22, §23
# [19] = target: BCL6 in Karpas 422 cells (Homo sapiens, UniProt P41182); assay: cell-based; settings: read-out: MSD degrader assay [Karpas 422] DC50; Karpas 422 cells
# Protocol: 3.2 Mesoscale Discovery (MSD) Degradation Assay
# An MSD assay was developed for screening of compounds to determine the degradation of endogenous BCL6 in OCI-Ly1 cells. Briefly, test compounds in DMSO or DMSO alone to a total of 1332.5 nL/well were dispensed to a 96-well Nunc™ Edge 2 plate (ThermoFisher Scientific, 267544) using an Echo® 550 acoustic […]
# supplemented with 10% heat-inactivated fetal bovine serum (Sera Plus, PAN Biotech, P30-3702) were […]
# incubation at 37 °C + 5% CO2 the plate was centrifuged at 300 x g for 5 minutes. […]
# plate washer for all wash and aspiration steps, media was removed and cells were rinsed with PBS, centrifuged as before and PBS removed. Cells were lysed in 50 µL ice-cold lysis buffer at pH 7.4 containing 50 mM Tris-HCl, 150 mM NaCl, 1 % Triton X-100 (v/v), 1 mM PMSF, 1 mM activated sodium vanadate, 1 mM EDTA, phosphatase inhibitors 2 and 3 (1:50 dilution) and protease inhibitor cocktail (1:100 dilution).
# 20 °C or continuing the assay. A 96-well MSD standard bind plate (MSD, L15XA-3) which was coated overnight with 1 µg/mL anti-human BCL6 goat antibody in PBS (R&D Systems, AF5046) was blocked in 3% BSA in TBS + 0.1% Tween-20 for 1 hour with shaking. Wells were emptied thoroughly before 40 µL/well of lysate was transferred from the cell plate. The MSD plate was incubated at RT for 1 hour with shaking then washed three times with TBS + 0.1 % Tween-20. Antibodies were prepared in TBS + 0.1% Tween-20 + 1% BSA. Anti-human BCL6 rabbit antibody (Cell Signalling Technology, 14895S) was added at 1:100 dilution at 25 µL/well. The plate was incubated and washed as before. MSD Sulfo-tag anti-rabbit detection antibody (MSD, R32AB-1) at 1:1000 dilution at 25 µL/well was added. The plate was incubated and washed as before and MSD Gold read buffer (MSD R92TG) at 1:1 dilution with water at 150 µL/well was added. The plate was read within 10 minutes on the MSD Quickplex reader. The % inhibition at each […]
# 3.3 Cell proliferation assay
# Aldrich) supplemented with 10% FBS (Gibco). […]
# transferred onto the cells.
# Assay plates containing cells […]
# [20] = OCI-Ly1, read-out: MSD degrader assay [OCI-Ly1] Dmax, mean maximal degradation of BCL6, OCI-Ly1 cells, 2 h
# [21] = reversed-phase HPLC on Phenomenex Luna C8 column
# [22] = OCI-Ly1, read-out: MSD degrader assay [OCI-LY1] Dmax individual replicates, single replicate values
# [23] = read-out: MSD degrader assay [OCI-LY1] DC50 individual replicates, single replicate values
# [24] = read-out: MSD degrader assay [OCI-Ly1] DC50, geometric mean, OCI-Ly1 cells, 2 h incubation
# [25] = read-out: BCL6 TR-FRET IC50, geometric mean, BCOR-AF633 peptide, 2 h incubation
smiles,measurement,setting,value
"C[C@@H]1CN(c2ncc(Cl)c(Nc3ccc4c(c3)n(CCC(C)(C)O)c(=O)n4C)n2)C[C@H](C)C1(F)F [2 CCT369260, 5-((5-Chloro-2-((3R,5S)-4,4-difluoro-3,5-dimethylpiperidin-1-yl)pyrimidin-4-yl)amino)-3-(3-hydroxy-3-methylbutyl)-1-methyl-1,3-dihydro-2H-benzo[d]imidazol-2-one]",Dmax,[1]; [20],99.3%
same,CL as % Qh,[2],22 % Qh
same,CL,[2]; 1 mg/kg i.v.,19.8 mL/min/kg
same,Vd,"[2]; mouse, in vivo, 1 mg/kg, read-out: Vss",2.1 L/kg
same,half-life at 6 h,"[2]; mouse, in vivo, po, 5 mg/kg",84 min
same,Cmax,"[2]; mouse, in vivo, 1 mg/kg i.v. and 5 mg/kg p.o.",1580 nM
same,F,"[2]; oral bioavailability, 5 mg/kg p.o. vs 1 mg/kg i.v.",54%
same,CLu,[2]; unbound clearance,46731 mL/min/kg
same,"microsomal CLint at 0.5 h, 1 µM","[3]; both sexes, pH 7.4",11 µL/min/mg
same,fraction unbound,[4],0.0004
same,chromatographic logD,[5]; [21],4.3
same,CLint (MLM),[6],78 μL/min/mg protein
same,PAMPA (pH 7.4),[7],33 ×10–6 cm s–1
same,solubility kinetic at 20 h,[8],11 µM
same,"fu,media",[9],0.022
same,"microsomal CLint at 0.5 h, 1 µM","[10]; female, Sprague-Dawley, pH 7.4",10 µL/min/mg
"Cn1c(=O)c2c(c3cc(Nc4nc(N5CCC(F)(F)[C@@H](CO)C5)ncc4Cl)ccc31)N[C@@H](C1CC1)C(F)(F)CO2 [9a, (S)-10-((5-Chloro-2-((R)-4,4-difluoro-3-(hydroxymethyl)piperidin-1-yl)pyrimidin-4-yl)amino)-2-cyclopropyl-3,3-difluoro-7-methyl-1,2,3,4-tetrahydro-[1,4]oxazepino[2,3-c]quinolin-6(7H)-one]",Dmax,[1]; [22],76.7%
same,Dmax,[1]; [20],82.8%
same,degradation of BCL6 (in words),[1],fully degraded the protein
same,MSD degrader assay [OCI-Ly1] Dmax,"[1]; OCI-Ly1 cells, 2 h",83%
same,MSD degrader assay [OCI-LY1] pDC50 mean,[1]; mean of replicates,8.5622
same,DC50,"[1]; read-out: Calculated free DC50 [OCI-Ly1], DC50 corrected with fu,media",0.24 nM
same,DC50,[1]; [23],2.5 nM and 3 nM
same,DC50,[1]; [24],2.7 nM
same,MSD degrader assay [OCI-LY1] Dmax individual replicates,[1]; single replicate values,89.0%
same,"microsomal CLint at 0.5 h, 1 µM","[3]; both sexes, pH 7.4",14 µL/min/mg
same,chromatographic logD,[5]; [21],3.2
same,Aq. Sol.,[11],13^f μM and 13 ^e μM
same,"microsomal CLint at 0.5 h, 1 µM",[6],142 µL/min/mg
same,PAMPA (pH 7.4),[7],21 ×10–6 cm s–1
same,IC50,[12],1.3 nM and 2.2 nM (2×) and 0.9 nM and 4 nM
same,BCL6 TR-FRET pIC50 mean,[13],8.8118
same,IC50,[13]; [25],1.5 nM
same,fraction unbound,"[9]; bovine, read-out: fu,media",0.088
same,"microsomal CLint at 0.5 h, 1 µM","[10]; female, Sprague-Dawley, pH 7.4",9 µL/min/mg
"C[C@@H]1C[C@H](O)CN(c2ncc(Cl)c(Nc3ccc4c(c3)c3c(c(=O)n4C)OCC(F)(F)[C@H](C4CC4)N3)n2)C1 [12b CCT373567, (S)-10-((5-Chloro-2-((3S,5R)-3-hydroxy-5-methylpiperidin-1-yl)pyrimidin-4-yl)amino)-2-cyclopropyl-3,3-difluoro-7-methyl-1,2,3,4-tetrahydro-[1,4]oxazepino[2,3-c]quinolin-6(7H)-one]",GI50,[14],362 nM
same,Dmax,[1]; [22],< 30%
same,Dmax,[1]; [20],< 30%
same,degradation of BCL6 (in words),[1],no degradation was seen
same,degradation of BCL6 (in words),[1]; listed as 12b,nondegrading isomer
same,MSD degrader assay [OCI-Ly1] Dmax,"[1]; OCI-Ly1 cells, 2 h",> 30%
same,DC50,[1]; [23],> 2000 nM
same,DC50,[1]; [24],> 2000 nM
same,GI50,[15],38 nM
same,microsomal CLint at 1 μM,"[3]; both sexes, pH 7.4",3 µL/min/mg
same,CLint (HLM),[3],low clearance
same,chromatographic logD,[5],2.9
same,GI50,[16],83 nM
same,"microsomal CLint at 0.5 h, 1 µM",[6],90 µL/min/mg
same,PAMPA (pH 7.4),[7],16 ×10–6 cm s–1
same,IC50,[12],3.9 nM and 2.4 nM (2×) and 2.6 nM
same,BCL6 TR-FRET pIC50 mean,[13],8.5554
same,IC50,[13]; [25],2.8 nM
same,IC50,"[13]; read-out: BCL6 TR-FRET IC50 individual replicates, single replicate values",2.8 nM
same,GI50,[17],2140 nM
same,GI50,[18],820 nM
same,DC50,[19],> 2000 nM
same,microsomal CLint at 1 μM,"[10]; female, Sprague-Dawley, pH 7.4",3 µL/min/mg
same,CLint (RLM),[10],low clearance
